Assays:
Plasma-LDL = assay: Stabilisation of plasma LDL: prolongation of the lag phase of Cu(II)-induced oxidation (diene formation at A 234); assay type: biochemical, human; conditions: for Stabilisierung v. Plasma LDL: Verlängerung der "lag-Phase": 3 molecules test substance per LDL particle, LDL 125 µg protein/ml, 10 µM CuCl2, pH 8, 42° C
Method: Stabilisierung von Plasma-LDL (nach Huber et al. (1990) Free Rad. Res. Comms. 8, 167-173)
LDL (125 µg Protein/ml) wurde in 20 mM Tris-Cl pH 8, 150 mM NaCl, 10 µM CuCl2 mit und ohne Testverbindung (gelöst in Äthanol, Äthanolendkonzentration 0,5 %) bei 42° C oxidiert. Es wurden jeweils 3 Moleküle Testsubstanz pro LDL-Partikel eingesetzt. Die Oxidation wurde kontinuierlich photometrisch bei A 234 durch die Messung der Dienbildung verfolgt. Die sogenannte "lag Phase" ist als dasjenige Zeitintervall definiert, das sich aus dem Schnittpunkt der Tangente der Kurve während der Propagationsreaktion der Lipidperoxidation und der Zeitachse ergibt.

P 388 D.1 Makrophagen = assay: Inhibition of cholesterol ester formation in macrophages (after Huber et al.); assay type: cell-based; conditions: P 388 D.1 macrophages; for Hemmung der Cholesterinesterbildung in Macro- (P388D.1): 18 h incubation, F-10 medium + 1 µM Cu(II) + 50 µg/ml LDL + 5 % FCS, test concentration not given
Method: Hemmung der Cholesterinesterbildung in Makrophagen (nach Huber et al. (1990) Free Rad. Res. Comms. 8, 167-173)
Humanplasma-LDL wurde durch sequentielle Ultrazentrifugation bei präselekierten Dichten aus dem Plasma gesunder männlicher Nichtraucher isoliert und für 5 h bei 37° C in F-10 Medium + 1µM Cu(II) zur Depletion seiner lipophilen Antioxidantien inkubiert. Die Bildung von Cholesterinestern in P 388 D.1 Makrophagen unter Einfluß von konditioniertem human Plasma-LDL wurde nach 18 h Inkubation der Zellen (2 x 10^6/ml) in F-10 Medium + 1 µM Cu(II) + 50 µg/ml LDL + 5 % FCS nach Extraktion der Neutral fette dünnschichtchromatographisch gemessen.

SMILES	Stabilisierung v. Plasma LDL: Verlängerung der "lag-Phase" (Plasma-LDL)	Hemmung der Cholesterinesterbildung in Macro- (P388D.1) (P 388 D.1 Makrophagen)	verlängern die lag-Phase von LDL (Plasma-LDL; reference substance, 3 molecules/LDL particle)	Hemmung der Chol-ester-bildung (P 388 D.1 Makrophagen; reference substance, 10 /uM, n=7)
CC(C)(C)c1cc(S(=O)(=O)NCc2ccccc2)cc(C(C)(C)C)c1O [1b).2, (3,5-Di-^tbutyl-4-hydroxy)benzolsulfo-benzylamid]	8	-73,0		
Cc1cc(C(C)(C)C)c(O)c(S(=O)(=O)NCc2ccccc2)c1 [Beispiel 2.2, (3-^tButyl-2-hydroxy-5-methyl)benzolsulfo-benzylamid]		-64.1		
CC(C)(C)c1cc(NS(=O)(=O)c2cc(C(C)(C)C)c(O)c(C(C)(C)C)c2)cc(C(C)(C)C)c1O [Beispiel 3.10]		-77.4		
CC(C)(C)c1cc(CNS(=O)(=O)c2cc(C(C)(C)C)c(O)c(C(C)(C)C)c2)cc(C(C)(C)C)c1O [Beispiel 3.11]	79	-66.7		
CC(C)(C)c1cc(CCNS(=O)(=O)c2cc(C(C)(C)C)c(O)c(C(C)(C)C)c2)cc(C(C)(C)C)c1O [Beispiel 3.12]		-63.4		
CC(C)(C)c1cc(CCCNS(=O)(=O)c2cc(C(C)(C)C)c(O)c(C(C)(C)C)c2)cc(C(C)(C)C)c1O [Beispiel 3.13]		-72.6		
CC(C)(Sc1cc(C(C)(C)C)c(O)c(C(C)(C)C)c1)Sc1cc(C(C)(C)C)c(O)c(C(C)(C)C)c1 [Probucol, reference compound]			10%	25-42%

— EP0588799B1, “NEW SULPHONAMIDES, PROCESS FOR PREPARING THE SAME AND MEDICAMENTS CONTAINING THESE COMPOUNDS” (BOEHRINGER MANNHEIM GMBH, priority 1991, dated 1992)
